Structures can show the parent of a compound that is named as a salt.
Key:
Aβ40 = assay: Cellular Aβ-lowering assay; assay type: cell-based; settings: HEK293 cells stably expressing human APP695, Aβ40 in supernatant by ELISA after 18-20 hrs; read-out: Cellular assay Abeta40 IC50
Outline: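 HEK293 cells stably expressing human wild-type APP695 were treated with compound for 18-20 h at 37 °C in 0.8% v/v DMSO. Secreted Aβ40 in the supernatant was measured by sandwich ELISA (Aβ40 C-terminus-specific capture, HRP-4G8 detection, TMB read at 450 nm) and quantified against a pure Aβ peptide standard curve.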

[1] = biological target: T1, endogenous cellular BACE2 (Rattus norvegicus, UniProt Q6IE75); assay: Assay for BACE inhibition by measuring cellular TMEM27 cleavage; assay type: cell-based; settings: INS-TMEM27 (INS1e-derived) cells, shed human TMEM27 in supernatant by ELISA
T1 construct: endogenous cellular BACE2 in the Ins1e rat cell line; endogenous in cells; host or cells: INS-TMEM27 (INS1e-derived rat insulinoma cell line with doxycycline-inducible full-length human TMEM27)
T1 sequence (Q6IE75 63-514): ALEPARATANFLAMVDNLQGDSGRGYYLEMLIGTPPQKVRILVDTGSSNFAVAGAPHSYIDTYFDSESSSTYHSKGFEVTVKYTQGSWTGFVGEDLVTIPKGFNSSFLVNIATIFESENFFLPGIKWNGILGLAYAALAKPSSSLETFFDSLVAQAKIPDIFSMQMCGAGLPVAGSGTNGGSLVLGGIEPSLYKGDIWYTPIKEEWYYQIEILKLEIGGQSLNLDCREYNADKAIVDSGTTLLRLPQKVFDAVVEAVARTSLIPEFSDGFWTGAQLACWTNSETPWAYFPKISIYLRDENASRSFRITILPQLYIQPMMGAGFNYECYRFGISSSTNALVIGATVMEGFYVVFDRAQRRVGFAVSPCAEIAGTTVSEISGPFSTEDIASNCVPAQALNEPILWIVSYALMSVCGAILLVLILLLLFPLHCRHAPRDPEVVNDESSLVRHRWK
Outline: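 INS1e rat cells with doxycycline-inducible human TMEM27 get inhibitor 2 h before doxycycline (500 ng/ml final), then 46 h further at 37° C. Shed TMEM27 in the supernatant is measured by sandwich ELISA, and the EC50 comes from a curve fit of the ELISA signal.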

IC50 (Aβ40)	IC50 [1]	SMILES
0.3 nM	91 nM	C[C@]1(c2cc(NC(=O)c3ccc(C#N)cn3)ccc2F)N=C(N)COC[C@@H]1F [Example 63, N-(3-((5R,6R)-3-amino-6-fluoro-5-methyl-2,5,6,7-tetrahydro-1,4-oxazepin-5-yl)-4-fluorophenyl)-5-cyanopicolinamide]
360 nM	400 nM	C[C@]1(c2cc(NC3CCCC3)ccc2F)N=C(N)COCC1(F)F [Example 64, (R)-5-(5-(cyclopentylamino)-2-fluorophenyl)-6,6-difluoro-5-methyl-2,5,6,7-tetrahydro-1,4-oxazepin-3-amine]
48 nM	56 nM	C[C@]1(c2cc(NC3CCCC3)ccc2F)N=C(N)COC[C@@H]1F [Example 65, (5R,6R)-5-(5-(cyclopentylamino)-2-fluorophenyl)-6-fluoro-5-methyl-2,5,6,7-tetrahydro-1,4-oxazepin-3-amine]
15.3 nM	54.4 nM	C[C@]1(c2cc(NC(=O)c3csc(Cl)n3)ccc2F)N=C(N)COCC1(F)F [Example 66, (R)-N-(3-(3-Amino-6,6-difluoro-5-methyl-2,5,6,7-tetrahydro-1,4-oxazepin-5-yl)-4-fluorophenyl)-2-chlorothiazole-4-carboxamide formate]
288 nM	67400 nM	CC(C)Oc1ccc(C(=O)Nc2ccc(F)c([C@@]3(C)N=C(N)COCC3(F)F)c2)nc1 [Example 67, (R)-N-(3-(3-Amino-6,6-difluoro-5-methyl-2,5,6,7-tetrahydro-1,4-oxazepin-5-yl)-4-fluorophenyl)-5-isopropoxypicolinamide formate]
3850 nM	5250 nM	C[C@@]1(c2cc(NC(=O)c3ccc(F)cn3)ccc2F)C[C@@H](c2ccccc2)OCC(N)=N1 [Example 68, 5-Fluoro-pyridine-2-carboxylic acid [3-((5S,7S)-3-amino-5-methyl-7-phenyl-2,5,6,7-tetrahydro-[1,4]oxazepin-5-yl)-4-fluoro-phenyl]-amide]
5.2 nM	172 nM	C[C@]1(c2cc(NC(=O)c3ccc(OCF)cn3)ccc2F)N=C(N)COCC1(F)F [Example 70, (R)-N-(3-(3-Amino-6,6-difluoro-5-methyl-2,5,6,7-tetrahydro-1,4-oxazepin-5-yl)-4-fluorophenyl)-5-(fluoromethoxy)picolinamide formate]
1500 nM	12400 nM	C[C@]1(c2cc(NC(=O)c3cnc(OCCF)cn3)ccc2F)N=C(N)COCC1(F)F [Example 71, (R)-N-(3-(3-Amino-6,6-difluoro-5-methyl-2,5,6,7-tetrahydro-1,4-oxazepin-5-yl)-4-fluorophenyl)-5-(2-fluoroethoxy)pyrazine-2-carboxamide formate]
590 nM	2440 nM	C[C@]1(c2cc(NC(=O)c3cc(Cl)c(Cl)s3)ccc2F)N=C(N)COCC1(F)F [Example 72, (R)-N-(3-(3-Amino-6,6-difluoro-5-methyl-2,5,6,7-tetrahydro-1,4-oxazepin-5-yl)-4-fluorophenyl)-4,5-dichlorothiophene-2-carboxamide formate,]
300 nM	6520 nM	C[C@]1(c2cc(NC(=O)c3nsc(Cl)n3)ccc2F)N=C(N)COCC1(F)F [Example 73, (R)-N-(3-(3-Amino-6,6-difluoro-5-methyl-2,5,6,7-tetrahydro-1,4-oxazepin-5-yl)-4-fluorophenyl)-5-chloro-1,2,4-thiadiazole-3-carboxamide formate]
10 nM	3380 nM	C[C@]1(c2cc(NC(=O)c3cnc(OCC(F)F)cn3)ccc2F)N=C(N)COCC1(F)F [Example 74, (R)-N-(3-(3-Amino-6,6-difluoro-5-methyl-2,5,6,7-tetrahydro-1,4-oxazepin-5-yl)-4-fluorophenyl)-5-(2,2-difluoroethoxy)pyrazine-2-carboxamide formate]
410 nM	89.8 nM	CC[C@]1(c2cc(NC(=O)c3ccccn3)ccc2F)N=C(N)COCC1(F)F [Example 75, (R)-N-(3-(3-amino-5-ethyl-6,6-difluoro-2,5,6,7-tetrahydro-1,4-oxazepin-5-yl)-4-fluorophenyl)picolinamide]
4 nM	568 nM	CC[C@]1(c2cc(NC(=O)c3ncccc3Cl)ccc2F)N=C(N)COCC1(F)F [Example 76, (R)-N-(3-(3-Amino-5-ethyl-6,6-difluoro-2,5,6,7-tetrahydro-1,4-oxazepin-5-yl)-4-fluorophenyl)-3-chloropicolinamide]
750 nM	179 nM	CC[C@]1(c2cc(NC(=O)c3ncccc3C(F)(F)F)ccc2F)N=C(N)COCC1(F)F [Example 77, (R)-N-(3-(3-Amino-5-ethyl-6,6-difluoro-2,5,6,7-tetrahydro-1,4-oxazepin-5-yl)-4-fluorophenyl)-3-(trifluoromethyl)picolinamide]
60 nM	74.3 nM	CC[C@]1(c2cc(NC(=O)c3ccc(F)cn3)ccc2F)N=C(N)COCC1(F)F [Example 78, (R)-N-(3-(3-Amino-5-ethyl-6,6-difluoro-2,5,6,7-tetrahydro-1,4-oxazepin-5-yl)-4-fluorophenyl)-5-fluoropicolinamide]
70 nM	67.1 nM	CC[C@]1(c2cc(NC(=O)c3ccc(C#N)cn3)ccc2F)N=C(N)COCC1(F)F [Example 79, (R)-N-(3-(3-Amino-5-ethyl-6,6-difluoro-2,5,6,7-tetrahydro-1,4-oxazepin-5-yl)-4-fluorophenyl)-5-cyanopicolinamide]
23 nM	55.9 nM	CC[C@]1(c2cc(NC(=O)c3ncc(Cl)cn3)ccc2F)N=C(N)COCC1(F)F [Example 80, (R)-N-(3-(3-Amino-5-ethyl-6,6-difluoro-2,5,6,7-tetrahydro-1,4-oxazepin-5-yl)-4-fluorophenyl)-5-chloropyrimidine-2-carboxamide]
5680 nM	421000 nM	CC[C@]1(c2cc(NC(=O)c3cccnn3)ccc2F)N=C(N)COCC1(F)F [Example 81, (R)-N-(3-(3-Amino-5-ethyl-6,6-difluoro-2,5,6,7-tetrahydro-1,4-oxazepin-5-yl)-4-fluorophenyl)pyridazine-3-carboxamide]
40 nM	36.2 nM	CC[C@]1(c2cc(NC(=O)c3ccc(Cl)cn3)ccc2F)N=C(N)COCC1(F)F [Example 82, (R)-N-(3-(3-Amino-5-ethyl-6,6-difluoro-2,5,6,7-tetrahydro-1,4-oxazepin-5-yl)-4-fluorophenyl)-5-chloropicolinamide]
15 nM	19.7 nM	CC[C@]1(c2cc(NC(=O)c3ncc(Cl)cc3Cl)ccc2F)N=C(N)COCC1(F)F [Example 83, (R)-N-(3-(3-Amino-5-ethyl-6,6-difluoro-2,5,6,7-tetrahydro-1,4-oxazepin-5-yl)-4-fluorophenyl)-3,5-dichloropicolinamide]
130 nM	60.2 nM	CC[C@]1(c2cc(NC(=O)c3ncc(F)cc3Cl)ccc2F)N=C(N)COCC1(F)F [Example 84, (R)-N-(3-(3-Amino-5-ethyl-6,6-difluoro-2,5,6,7-tetrahydro-1,4-oxazepin-5-yl)-4-fluorophenyl)-3-chloro-5-fluoropicolinamide]
280 nM	29.2 nM	CC[C@]1(c2cc(NC(=O)c3nn(C)cc3Cl)ccc2F)N=C(N)COCC1(F)F [Example 85, (R)-N-(3-(3-Amino-5-ethyl-6,6-difluoro-2,5,6,7-tetrahydro-1,4-oxazepin-5-yl)-4-fluorophenyl)-4-chloro-1-methyl-1H-pyrazole-3-carboxamide]
370 nM	491 nM	CC[C@]1(c2cc(NC(=O)c3n[nH]cc3Cl)ccc2F)N=C(N)COCC1(F)F [Example 86, (R)-N-(3-(3-Amino-5-ethyl-6,6-difluoro-2,5,6,7-tetrahydro-1,4-oxazepin-5-yl)-4-fluorophenyl)-4-chloro-1H-pyrazole-3-carboxamide]
1120 nM	134 nM	CC[C@]1(c2cc(NC(=O)c3ncoc3C)ccc2F)N=C(N)COCC1(F)F [Example 87, (R)-N-(3-(3-amino-5-ethyl-6,6-difluoro-2,5,6,7-tetrahydro-1,4-oxazepin-5-yl)-4-fluorophenyl)-5-methyloxazole-4-carboxamide]
5 nM	354 nM	C[C@]1(c2cc(NC(=O)c3ncc(C(F)(F)F)cc3F)ccc2F)N=C(N)COCC1(F)F [Example 88, (R)-N-(3-(3-Amino-6,6-difluoro-5-methyl-2,5,6,7-tetrahydro-1,4-oxazepin-5-yl)-4-fluorophenyl)-3-fluoro-5-(trifluoromethyl)picolinamide formate]
5 nM	85.3 nM	COc1ccc(C(=O)Nc2ccc(F)c([C@@]3(C)N=C(N)COCC3(F)F)c2)nc1 [Example 90, (R)-N-(3-(3-Amino-6,6-difluoro-5-methyl-2,5,6,7-tetrahydro-1,4-oxazepin-5-yl)-4-fluorophenyl)-5-methoxypicolinamide formate]

From patent US8673894B2 (Hoffmann-La Roche Inc., priority 2010, dated 2014)
